Laboratory results published in patent publication US6432959B1, “Inhibitors of farnesyl-protein transferase” (Schering Corporation, priority 1998, dated 2002).
“And” between values parts separate entries of the source, which are not always exact repeats. Identical values can stand only once.

Key:
[1] = target: T1, partially purified rat brain farnesyl protein transferase (FPT) (Rattus norvegicus, UniProt Q02293+Q04631); test: FPT IC50, in vitro enzyme assay (inhibition of Ras-CVLS farnesylation); format: biochemical; conditions: inhibition of Ras-CVLS farnesylation by partially purified rat brain FPT; value is a range stated for a group of compounds
T1 construct: partially purified rat brain farnesyl protein transferase (FPT); from tissue; host or cells: rat brain
Procedure: 1. In vitro enzyme assays: FPT IC50 (inhibition of farnesyl protein transferase, in vitro enzyme assay) are determined by the methods disclosed in WO/10515 or WO95/10516.

Structure (SMILES)	melting point	IC50 [1]
CC(C)(C)OC(=O)N1CCN(C(=O)NC2CCCCC2)[C@@H](C(=O)NCCc2cncn2Cc2ccc(F)cc2)C1 [Example 2]	72 °C (dec.)	
O=C(NCCc1cncn1CCc1ccccc1)[C@H]1CN(Cc2ccccc2)CCN1C(=O)NC1CCCCC1 [Example 28D, N4-phenylmethyl-N2-[2-[1-(phenylethyl)-1H-imidazol-5-yl]ethyl]-N1-cyclohexyl-1,2(R)-piperazinedicarboxamide]	64.4 °C	
CCS(=O)(=O)N1CCN(Cc2ccccc2)C[C@@H]1C(=O)NCCc1cncn1Cc1ccc(C#N)cc1 [Example 28K, N-[2-[1-[(4-cyanophenyl)methyl]-1H-imidazol-5-yl]ethyl]-1-(ethylsulfonyl)-4-(phenylmethyl)-2(R)-piperazinecarboxamide]	97.3 to 150.2 °C	
CC(C)(C)NC(=O)N1CCN(Cc2ccccc2)C[C@@H]1C(=O)NCCc1cncn1Cc1ccc(C#N)cc1 [Example 28O, N2-[2-[1-[(4-cyanophenyl)methyl]-1H-imidazol-5-yl]ethyl]-N1-(1,1-dimethylethyl)-4-(phenylmethyl)-1,2(R)-piperazinedicarboxamide]	97.8 °C	180 to 21000 pM and 180 to 1500 pM
N#Cc1ccc(Cn2cncc2CCNC(=O)[C@H]2CN(S(=O)(=O)c3ccccc3)CCN2C(=O)NC2CCCCC2)cc1 [Example 28R, N2-[2-[1-[(4-Cyanophenyl)methyl]-1H-imidazol-5-yl]ethyl]-N1-cyclohexyl-4-(phenylsulfonyl)-1,2(R)-piperazinedicarboxamide]	143.6 °C	180 to 21000 pM
O=C([C@H]1CN(Cc2ccccc2)CCN1C(=O)NC1CCCCC1)N(CCCn1ccnc1)Cc1ccccc1 [Example 28S, N1-cyclohexyl-N2-[3-(1H-imidazol-1-yl)propyl]-N2,4-bis(phenylmethyl)-1,2(R)-piperazinedicarboxamide]	89.1 °C	180 to 21000 pM
CC(C)(C)OC(=O)N1CCN(C(=O)OCc2ccccc2)[C@@H](C(=O)NCCCn2ccnc2C(N)=O)C1 [Example 28Z]	71 to 75 °C	
N#Cc1ccc(Cn2cncc2CCNC(=O)[C@H]2CN(Cc3ccccc3Cl)CCN2C(=O)NC2CCCCC2)cc1 [Example 28]		180 to 21000 pM
N#Cc1ccc(Cn2cncc2CCNC(=O)C2CN(CCc3ccccc3)CCN2C(=O)NC2CCCCC2)cc1 (stereo not shown) [Example 29]		180 to 21000 pM
CS(=O)(=O)N1CCN(CCc2ccccc2)CC1C(=O)NCCc1cncn1Cc1ccc(C#N)cc1 (stereo not shown) [Example 31]		180 to 21000 pM
N#Cc1ccc(Cn2cncc2CCNC(=O)C2CN(CCC3CCCCC3)CCN2C(=O)NC2CCCCC2)cc1 (stereo not shown) [Example 32]		180 to 21000 pM
CCCCCN1CCN(S(C)(=O)=O)C(C(=O)NCCc2cncn2Cc2ccc(C#N)cc2)C1 (stereo not shown) [Example 34]		180 to 21000 pM
O=C(NCCc1cncn1Cc1ccc(Cl)c(Cl)c1)C1CN(CCC2CCCCC2)CCN1C(=O)NC1CCCCC1 (stereo not shown) [Example 36]		180 to 21000 pM
N#Cc1ccc(Cn2cncc2CCNC(=O)C2CN(C(=O)c3ccncc3)CCN2C(=O)NC2CCCCC2)cc1 (stereo not shown) [Example 42]		180 to 21000 pM
CCCCNC(=O)N1CCN(C(=O)NC2CCCCC2)C(C(=O)NCCc2cncn2Cc2ccc(C#N)cc2)C1 (stereo not shown) [Example 47]		180 to 21000 pM
O=C(NCCc1cncn1Cc1ccc(C(F)(F)F)cc1)C1CN(CCc2cccc(Cl)c2)CCN1C(=O)NC1CCCCC1 (stereo not shown) [Example 53]		180 to 21000 pM
N#Cc1ccc(Cn2cncc2CCNC(=O)C2CN(CCc3cccc(Cl)c3)CCN2C(=O)NC2CCCCC2)cc1 (stereo not shown) [Example 54]		180 to 21000 pM and 180 to 1500 pM
Cc1ccc(CCN2CCN(C(=O)NC3CCCCC3)C(C(=O)NCCc3cncn3Cc3ccc(C#N)cc3)C2)cc1O (stereo not shown) [Example 55]		180 to 21000 pM and 180 to 1500 pM
CC(C)(C)CCN1CCN(C(=O)NC2CCCCC2)C(C(=O)NCCc2cncn2Cc2ccc(Cl)c(Cl)c2)C1 (stereo not shown) [Example 56]		180 to 21000 pM
COc1cccc(CN2CCN(C(=O)NC3CCCCC3)C(C(=O)NCCc3cncn3Cc3ccc(Cl)c(Cl)c3)C2)c1 (stereo not shown) [Example 58]		180 to 21000 pM
Cn1cncc1CCNC(=O)C1CN(CCC2CCCCC2)CCN1C(=O)NC1CCCCC1 (stereo not shown) [Example 61]		180 to 21000 pM
O=C(NCCc1cncn1Cc1ccccc1)[C@H]1CN(CCC2CCCCC2)CCN1C(=O)NC1CCCCC1 [Example 64]		180 to 21000 pM

The next lines start with the values.

melting point	IC50 [1]	Structure (SMILES)
	180 to 21000 pM	N#Cc1ccc(Cn2cncc2CCNC(=O)[C@H]2CN(Cc3nccs3)CCN2C(=O)NC2CCCCC2)cc1 [Example 8]
	180 to 21000 pM	CC(C)(C)CCN1CCN(C(=O)NC2CCCCC2)[C@@H](C(=O)NCCc2cncn2Cc2ccc(C#N)cc2)C1 [Example 9]
	180 to 21000 pM	N#Cc1ccc(CN2CCN(C(=O)NC3CCCCC3)[C@@H](C(=O)NCCc3cncn3Cc3ccc(C#N)cc3)C2)cc1 [Example 10]
	180 to 21000 pM	N#Cc1ccc(Cn2cncc2CCNC(=O)[C@H]2CN(Cc3ccccc3C#N)CCN2C(=O)NC2CCCCC2)cc1 [Example 11]
	180 to 21000 pM	COc1ccc(CN2CCN(C(=O)NC3CCCCC3)[C@@H](C(=O)NCCc3cncn3Cc3ccc(C#N)cc3)C2)cc1 [Example 12]
	180 to 21000 pM	N#Cc1ccc(Cn2cncc2CCNC(=O)[C@H]2CN(CC3CCCCC3)CCN2C(=O)NC2CCCCC2)cc1 [Example 13]
	180 to 21000 pM	N#Cc1ccc(Cn2cncc2CCNC(=O)[C@H]2CN(Cc3ccc(F)cc3)CCN2C(=O)NC2CCCCC2)cc1 [Example 14]
	180 to 21000 pM	N#Cc1ccc(Cn2cncc2CCNC(=O)[C@H]2CN(Cc3ccc(C(F)(F)F)cc3)CCN2C(=O)NC2CCCCC2)cc1 [Example 15]
	180 to 21000 pM	N#Cc1ccc(Cn2cncc2CCNC(=O)[C@H]2CN(Cc3ccc(Cl)cc3)CCN2C(=O)NC2CCCCC2)cc1 [Example 16]
	180 to 21000 pM	N#Cc1ccc(Cn2cncc2CCNC(=O)[C@H]2CN(Cc3ccc(Br)cc3)CCN2C(=O)NC2CCCCC2)cc1 [Example 17]
	180 to 21000 pM	CC(=O)Nc1ccc(CN2CCN(C(=O)NC3CCCCC3)[C@@H](C(=O)NCCc3cncn3Cc3ccc(C#N)cc3)C2)cc1 [Example 20]
	180 to 21000 pM	N#Cc1ccc(Cn2cncc2CCNC(=O)[C@H]2CN(Cc3cccc4ccccc34)CCN2C(=O)NC2CCCCC2)cc1 [Example 21]
	180 to 21000 pM	Cc1ccc(CN2CCN(C(=O)NC3CCCCC3)[C@@H](C(=O)NCCc3cncn3Cc3ccc(C#N)cc3)C2)cc1 [Example 22]
	180 to 21000 pM	N#Cc1ccc(Cn2cncc2CCNC(=O)[C@H]2CN(Cc3ccc(O)cc3)CCN2C(=O)NC2CCCCC2)cc1 [Example 23]
	180 to 21000 pM	N#Cc1ccc(Cn2cncc2CCNC(=O)[C@H]2CN(Cc3ccc(Cl)cc3Cl)CCN2C(=O)NC2CCCCC2)cc1 [Example 24]
	180 to 21000 pM	N#Cc1ccc(Cn2cncc2CCNC(=O)[C@H]2CN(Cc3cccc(Cl)c3)CCN2C(=O)NC2CCCCC2)cc1 [Example 25]
	180 to 21000 pM	COc1cccc(CN2CCN(C(=O)NC3CCCCC3)[C@@H](C(=O)NCCc3cncn3Cc3ccc(C#N)cc3)C2)c1 [Example 26]
	180 to 21000 pM	COc1ccccc1CN1CCN(C(=O)NC2CCCCC2)[C@@H](C(=O)NCCc2cncn2Cc2ccc(C#N)cc2)C1 [Example 27]
116.2 °C	180 to 21000 pM	O=C(NCCc1cncn1Cc1ccc(Cl)cc1)[C@H]1CN(Cc2ccccc2)CCN1C(=O)NC1CCCCC1 [Example 28C, N4-phenylmethyl-N2-[2-[1-[(4-chlorophenyl)methyl]-1H-imidazol-5-yl]ethyl]-N1-cyclohexyl-1,2(R)-piperazinedicarboxamide]
	180 to 21000 pM	CCC(=O)N1CCN(Cc2ccccc2)C[C@@H]1C(=O)NCCc1cncn1Cc1ccc(C#N)cc1 [Example 28E, N-[2-[1-[(4-cyanophenyl)methyl]-1H-imidazol-5-yl]ethyl]-1-(1-oxopropyl)-4-phenyl(methyl)-2(R)-piperazinedicarboxamide]
	180 to 21000 pM	CCCC(=O)N1CCN(Cc2ccccc2)C[C@@H]1C(=O)NCCc1cncn1Cc1ccc(C#N)cc1 [Example 28F, N-[2-[1-[(4-cyanophenyl)methyl]-1H-imidazol-5-yl]ethyl]-1-(1-oxobutyl)-4-phenyl(methyl)-2(R)-piperazinedicarboxamide]
115.3 to 170.3 °C	180 to 21000 pM	N#Cc1ccc(Cn2cncc2CCNC(=O)[C@H]2CN(Cc3ccccc3)CCN2C(=O)c2ccccc2)cc1 [Example 28G, 1-benzoyl-N-[2-[1-[(4-cyanophenyl)methyl]-1H-imidazol-5-yl]ethyl]-4-phenylmethyl-2(R)-piperazinedicarboxamide]
85.6 to 96.7 °C	180 to 21000 pM	N#Cc1ccc(Cn2cncc2CCNC(=O)[C@H]2CN(Cc3ccccc3)CCN2C(=O)Cc2ccccc2)cc1 [Example 28I, N-[2-[1-[(4-cyanophenyl)methyl]-1H-imidazol-5-yl]ethyl]-1-phenylacetyl-4-(phenylmethyl)-2(R)-piperazinedicarboxamide]
	180 to 21000 pM	N#Cc1ccc(Cn2cncc2CCNC(=O)[C@H]2CN(Cc3ccccc3)CCN2S(=O)(=O)Cc2ccccc2)cc1 [Example 28M, N-[2-[1-[(4-cyanophenyl)methyl]-1H-imidazol-5-yl]ethyl]-1-[(phenylmethyl)sulfonyl]-4-(phenylmethyl)-2(R)-piperazinecarboxamide]
	180 to 21000 pM	N#Cc1ccc(Cn2cncc2CCNC(=O)[C@H]2CN(Cc3ccccc3)CCN2C(=O)Cc2cc[n+]([O-])cc2)cc1 [Example 28P, N-[2-[1-[(4-cyanophenyl)methyl]-1H-imidazol-5-yl]ethyl]-4-(phenylmethyl)-1-(4-pyridinylacetyl)-2(R)-piperazinecarboxamide N1-oxide]
118.5 °C	180 to 21000 pM	N#Cc1ccc(Cn2cncc2CCNC(=O)[C@H]2CN(Cc3ccccc3)CCN2C(=O)CC2CCN(C(N)=O)CC2)cc1 [Example 28Q, 1-[[1-(aminocarbonyl)-4-piperidinyl]acetyl]-N-[2-[1-[(4-cyanophenyl)methyl]-1H-imidazol-5-yl]ethyl]-4-(phenylmethyl)-2(R)-piperazinecarboxamide]
